Measurements from patent US8729224B2, “Melanocortin receptor-specific peptides for treatment of female sexual dysfunction” (Palatin Technologies, Inc., priority 2008, dated 2014).

Assays:
[1] = tested on: systolic blood pressure; settings: rat, in vivo
Excerpt: In other studies, including comparisons of the same quantities of the cyclic peptide of Example 8.1 and bremelanotide by the same routes of administration, substantially similar results were obtained. […] In other studies, including comparisons of the same quantities of the cyclic peptide of Example 8.4 and bremelanotide by the same routes of administration, substantially similar results were obtained.

[2] = tested on: penile erection in male Sprague-Dawley rats; experiment: Induction of penile erection in male rats; type: in vivo, rat; settings: for observed spontaneous erections compared to vehicle controls: rat model
[3] = target: T1, hMC4-R (Homo sapiens, UniProt P32245); experiment: Competitive inhibition binding assay using NDP-α-MSH, MC4-R; settings: for Ki: competitive studies using NDP-α-MSH, human recombinant receptor, average of studies
T1 construct: expressed in transfected cells; host or cells: HEK-293
Description: A competitive inhibition binding assay is performed using membrane homogenates prepared from HEK-293 cells that express recombinant hMC4-R, hMC3-R, or hMC5-R, and from B-16 mouse melanoma cells (containing endogenous MC1-R). In some instances, HEK-293 cells that express recombinant hMC1-R were employed. In the examples that follow, all MC3-R, MC4-R and MC5-R values are for human recombinant receptors. MC1-R values are for B-16 mouse melanoma cells, unless the heading is “hMC1-R”, in which case the value is for human recombinant MC1-R. Assays were performed in 96 well GF/B Millipore multiscreen filtration plates (MAFB NOB10) pre-coated with 0.5% bovine serum albumin (Fraction V). Membrane homogenates were incubated with 0.2 nM (for hMC4-R) 0.4 nM (for MC3-R and MC5-R) or 0.1 nM (for mouse B16 MC1-R or hMC1-R) [I^125]-NDP-α-MSH (Perkin Elmer) and increasing concentrations of cyclic peptides of the present invention in buffer containing 25 mM HEPES buffer (pH 7.5) with 100 mM NaCl, 2 mM CaCl2, 2 mM MgCl2, 0.3 mM 1,10-phenanthroline, and 0.2% bovine serum albumin. After incubation for 60 minutes at 37° C., the assay mixture was filtered and the membranes washed three times with ice-cold buffer. Filters were dried and counted in a gamma counter for bound radioactivity. […] Maximal specific binding (100%) was defined as the difference in radioactivity (cpm) bound to cell membranes in the absence and presence of 1 μM NDP-α-MSH. […] Ki values for cyclic peptides of the present invention were determined using Graph-Pad Prism® curve-fitting software. […]
Alternatively, a competitive inhibition binding assay was performed employing Eu-NDP-α-MSH (PerkinElmer Life Sciences catalog No. AD0225) with determination by time-resolved fluorometry (TRF) of the lanthanide chelate. […] The plates were incubated on a shaker for 15 minutes and read at 340 nm excitation and 615 nm emission wavelengths. […] Ki values were determined by curve-fitting with Graph-Pad Prism® software using a one-site fixed-slope competition binding model. […]

[4] = target: T1, hMC4-R; experiment: Assay for agonist activity (cAMP accumulation in HEK-293 cells expressing hMC4-R); type: cell-based
Description: Accumulation of intracellular cAMP is examined as a measure of the ability of the cyclic peptides of the present invention to elicit a functional response in HEK-293 cells that express MC4-R. Confluent HEK-293 cells that express recombinant hMC4-R were detached from culture plates by incubation in enzyme-free cell dissociation buffer. Dispersed cells were suspended in Earle's Balanced Salt Solution containing 10 mM HEPES (pH 7.5), 1 mM MgCl2, 1 mM glutamine, 0.5% albumin and 0.3 mM 3-isobutyl-1-methyl-xanthine (IBMX), a phosphodiesterase inhibitor. The cells were plated in 96-well plates at a density of 0.5×10^5 cells per well and pre-incubated for 30 minutes. Cells were exposed for 1 hour at 37° C. to test cyclic peptides of the present invention dissolved in DMSO (final DMSO concentration of 1%) at a concentration range of 0.05-5000 nM in a total assay volume of 200 μL. NDP-α-MSH was used as the reference agonist. At the end of the incubation period, cells were disrupted by the addition of 50 μL of lysis buffer (cAMP EIA kit, Amersham) followed by vigorous pipetting. Levels of cAMP in the lysates were determined using a cAMP EIA kit (Amersham). Data analysis was performed by nonlinear regression analysis with Graph-Pad Prism® software. The maximum efficacies of the cyclic peptides of the present invention were compared to that achieved by the reference melanocortin agonist NDP-αMSH.

[5] = target: T2, hMC3-R (Homo sapiens, UniProt P41968); experiment: Competitive inhibition binding assay using NDP-α-MSH, MC3-R; settings: competitive studies using NDP-α-MSH; human recombinant receptor
T2 construct: expressed in transfected cells; host or cells: HEK-293
Description: (§1) A competitive inhibition binding assay is performed using membrane homogenates prepared from HEK-293 cells that express recombinant hMC4-R, hMC3-R, or hMC5-R, and from B-16 mouse melanoma cells (containing endogenous MC1-R). In some instances, HEK-293 cells that express recombinant hMC1-R were employed. In the examples that follow, all MC3-R, MC4-R and MC5-R values are for human recombinant receptors. MC1-R values are for B-16 mouse melanoma cells, unless the heading is “hMC1-R”, in which case the value is for human recombinant MC1-R. Assays were performed in 96 well GF/B Millipore multiscreen filtration plates (MAFB NOB10) pre-coated with 0.5% bovine serum albumin (Fraction V). […] Filters were dried and counted in a gamma counter for bound radioactivity. […] Maximal specific binding (100%) was defined as the difference in radioactivity (cpm) bound to cell membranes in the absence and presence of 1 μM NDP-α-MSH. […] Ki values for cyclic peptides of the present invention were determined using Graph-Pad Prism® curve-fitting software. […]
(§2) Alternatively, a competitive inhibition binding assay was performed employing Eu-NDP-α-MSH (PerkinElmer Life Sciences catalog No. AD0225) with determination by time-resolved fluorometry (TRF) of the lanthanide chelate. […] The plates were incubated on a shaker for 15 minutes and read at 340 nm excitation and 615 nm emission wavelengths. […]

[6] = target: T3, MC1-R (B-16 mouse melanoma cells) (Mus musculus, UniProt Q01727); experiment: Competitive inhibition binding assay using NDP-α-MSH, MC1-R; settings: competitive studies using NDP-α-MSH
T3 construct: from B-16 mouse melanoma cells (containing endogenous MC1-R); endogenous in cells; host or cells: B-16 mouse melanoma cells
Description: as §1

[7] = target: T4, hMC5-R (Homo sapiens, UniProt P33032); experiment: Competitive inhibition binding assay using NDP-α-MSH, MC5-R; settings: competitive studies using NDP-α-MSH; human recombinant receptor
T4 construct: expressed in transfected cells; host or cells: HEK-293
Description: as §1, §2

T1 sequence (P32245 whole entry): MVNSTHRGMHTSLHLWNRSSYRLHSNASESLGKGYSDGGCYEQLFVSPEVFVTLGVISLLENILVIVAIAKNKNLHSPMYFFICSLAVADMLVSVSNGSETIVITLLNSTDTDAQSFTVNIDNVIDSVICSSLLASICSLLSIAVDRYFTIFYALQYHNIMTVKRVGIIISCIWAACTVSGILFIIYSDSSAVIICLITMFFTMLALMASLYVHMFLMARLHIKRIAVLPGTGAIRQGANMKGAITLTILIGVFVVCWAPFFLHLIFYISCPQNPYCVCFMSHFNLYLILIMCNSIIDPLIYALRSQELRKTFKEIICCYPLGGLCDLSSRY
T4 sequence (P33032 whole entry): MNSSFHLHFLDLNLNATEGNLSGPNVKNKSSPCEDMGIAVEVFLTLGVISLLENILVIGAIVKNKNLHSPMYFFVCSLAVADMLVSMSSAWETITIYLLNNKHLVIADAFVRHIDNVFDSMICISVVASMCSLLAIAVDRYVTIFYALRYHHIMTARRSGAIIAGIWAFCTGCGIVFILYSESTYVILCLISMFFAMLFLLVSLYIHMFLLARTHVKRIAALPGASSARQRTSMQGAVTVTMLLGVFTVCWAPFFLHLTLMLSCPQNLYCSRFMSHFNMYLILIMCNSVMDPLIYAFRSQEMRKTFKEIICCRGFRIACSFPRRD
T3 sequence (Q01727 whole entry): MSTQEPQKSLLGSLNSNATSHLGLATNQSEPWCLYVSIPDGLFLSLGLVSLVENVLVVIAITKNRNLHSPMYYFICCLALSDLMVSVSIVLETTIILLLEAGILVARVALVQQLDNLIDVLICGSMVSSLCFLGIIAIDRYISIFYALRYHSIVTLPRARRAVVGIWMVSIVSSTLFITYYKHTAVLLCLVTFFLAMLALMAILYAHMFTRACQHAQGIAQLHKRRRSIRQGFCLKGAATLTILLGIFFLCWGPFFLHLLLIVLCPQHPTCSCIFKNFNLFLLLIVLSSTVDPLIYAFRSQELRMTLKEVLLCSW
T2 sequence (P41968 whole entry): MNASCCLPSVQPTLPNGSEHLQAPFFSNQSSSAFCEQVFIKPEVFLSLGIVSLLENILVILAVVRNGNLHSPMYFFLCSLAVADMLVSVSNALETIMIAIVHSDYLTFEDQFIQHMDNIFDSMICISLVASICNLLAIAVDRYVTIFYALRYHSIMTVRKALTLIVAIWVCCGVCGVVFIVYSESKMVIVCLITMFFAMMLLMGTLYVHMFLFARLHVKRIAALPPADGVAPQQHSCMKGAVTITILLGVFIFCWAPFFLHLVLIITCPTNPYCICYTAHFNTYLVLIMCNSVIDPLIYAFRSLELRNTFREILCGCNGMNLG

Compound	increase of systolic blood pressure compared to a dose of bremelanotide producing comparable penile erection results [1]	penile erections per rat per hour compared to bremelanotide (companion studies) ([2]; 3.0 μmol/kg subcutaneous vs bremelanotide 1 μmol/kg IV)	observed spontaneous erections compared to vehicle controls ([2]; subcutaneous)	spontaneous erections per rat in one hour ([2]; subcutaneous, 0.3 mg/kg, n=7)	spontaneous erections per rat in one hour ([2]; subcutaneous, 1.0 mg/kg, n=7)	receptor selectivity in binding ([3]; MC1-R, MC3-R, MC4-R and MC5-R binding compared)	functional status at MC4-R ([4]; functional studies)	Ki [5] [nM]	Ki [6] [nM]	Ki [7] [nM]	Ki [3] [nM]	penile erections per rat per hour compared to bremelanotide (companion studies) ([2]; 1 mg/kg subcutaneous vs bremelanotide 1 mg/kg IV)	Emax ([4]; HEK293, NDP-α-MSH is 100%, read-out: intrinsic activity at MC4-R) [%]	EC50 ([4]; functional studies, cAMP, average of studies, read-out: EC50 at MC4-R) [nM]	spontaneous erections per rat in one hour ([2]; IV, 1 mg/kg, n=7, positive control)
CC(=O)N[C@@H](CCCNC(=N)N)C(=O)N[C@H]1CC(=O)NCCCC[C@@H](C(N)=O)NC(=O)[C@H](Cc2c[nH]c3ccccc23)NC(=O)[C@H](CCCNC(=N)N)NC(=O)[C@@H](Cc2ccccc2)NC(=O)[C@H](CCN)NC1=O [Example 8.1, Ac-Arg-cyclo(Asp-Dab-D-Phe-Arg-Trp-Lys)-NH2]	less increase of systolic blood pressure	same or higher penile erection results	statistically significant increase	2.286±0.286	4.571±1.088	selective for MC4-R	agonist								
CC(=O)N[C@@H](CCCNC(=N)N)C(=O)N[C@H]1CCC(=O)NCCC[C@@H](C(N)=O)NC(=O)[C@H](Cc2c[nH]c3ccccc23)NC(=O)[C@H](CCCNC(=N)N)NC(=O)[C@@H](Cc2ccccc2)NC(=O)[C@H](CCN)NC1=O [Example 8.3, Ac-Arg-cyclo(Glu-Dab-D-Phe-Arg-Trp-Orn)-NH2]							agonist	74	1	300	0.65				
CC(=O)N[C@@H](CCCNC(=N)N)C(=O)N[C@H]1CCC(=O)NCCC[C@@H](C(=O)O)NC(=O)[C@H](Cc2c[nH]c3ccccc23)NC(=O)[C@H](CCCNC(=N)N)NC(=O)[C@@H](Cc2ccccc2)NC(=O)[C@H](CCN)NC1=O [Example 8.4, Ac-Arg-cyclo(Glu-Dab-D-Phe-Arg-Trp-Orn)-OH]	less increase of systolic blood pressure		statistically significant increase	2.571±0.685	5.286±0.918		agonist	410	4	2370	8	same or higher penile erection results	91	3	
CCCC[C@H](NC(C)=O)C(=O)N[C@H]1CC(=O)NCCCC[C@@H](C(=O)O)NC(=O)[C@H](Cc2c[nH]c3ccccc23)NC(=O)[C@H](CCCN=C(N)N)NC(=O)[C@@H](Cc2ccccc2)NC(=O)[C@H](Cc2cnc[nH]2)NC1=O [bremelanotide, Ac-Nle-cyclo(Asp-His-D-Phe-Arg-Trp-Lys)-OH, reference compound]															4±0.535
